Data from patent publication US20220296659A1, “PHARMACEUTICAL COMPOSITION FOR TREATMENT OF TUMOR OR CANCER, AND APPLICATION THEREOF” (FANTASIA BIOPHARMA (ZHEJIANG) CO. LTD, priority 2019, published 2022).

Legend:
lung cancer cells = format: in vivo, mice; conditions: after completion of the experiment

Q: Which “overall inhibition ratio (lung metastasis)” value (lung cancer cells) does the source give for `O=C(O)c1cc(O)c2c(c1)C(=O)c1cccc(O)c1C2=O` [rhein] here?
A: 15.8%

Q: And the “toxic damage to the tumor-bearing mice” value (different doses, under the experimental conditions)?
A: did not cause toxic damage

Q: What about the “influence on the body temperature of tumor-bearing mice” value (mouse, in vivo) of the same molecule?
A: some fluctuations
